# Experimental data from patent US20140088124A1, “IMIDAZOLE DERIVATIVES” (priority 2011, published 2014).
# pIC50: −log10 of the molar value.
# Molecular target: T1, human DGAT1 (Homo sapiens, UniProt O75907)
# T1 sequence (O75907 1-488): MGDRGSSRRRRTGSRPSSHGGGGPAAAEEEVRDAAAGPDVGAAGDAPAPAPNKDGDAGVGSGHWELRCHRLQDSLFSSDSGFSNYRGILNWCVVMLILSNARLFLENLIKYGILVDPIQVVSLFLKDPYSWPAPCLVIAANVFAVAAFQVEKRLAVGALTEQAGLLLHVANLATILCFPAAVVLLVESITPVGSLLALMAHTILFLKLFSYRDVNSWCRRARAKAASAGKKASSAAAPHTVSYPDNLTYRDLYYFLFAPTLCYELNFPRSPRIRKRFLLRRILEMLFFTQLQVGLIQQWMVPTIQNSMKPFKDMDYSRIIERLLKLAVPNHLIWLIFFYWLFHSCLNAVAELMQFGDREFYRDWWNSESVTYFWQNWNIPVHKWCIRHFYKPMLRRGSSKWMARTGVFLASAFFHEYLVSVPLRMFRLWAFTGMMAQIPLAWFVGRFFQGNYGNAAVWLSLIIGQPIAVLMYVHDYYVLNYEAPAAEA
# Test: DGAT1 CPM Assay
# Type: biochemical
# Conditions: human DGAT1, CPM fluorescence, 1 hour incubation at room temperature
# Procedure: 20 uL of 90 uM CPM reagent in 90% ethanol was added after 1 hour incubation at room temperature.
row,Compound,pIC50
1,O=C(O)[C@@H]1[C@@H]2C[C@H](OC3CCN(c4ccc(-c5nc6cc(C(F)(F)F)ccc6[nH]5)cn4)CC3)C[C@@H]21 [Example 135],7.96
2,O=C(NS(=O)(=O)C1CC1)[C@H]1CC[C@H](OC2CCN(c3ccc(-c4nc5cc(F)ccc5[nH]4)cn3)CC2)CC1 [Example 83],7.77
3,CS(=O)(=O)NC(=O)[C@H]1CC[C@H](OC2CCN(c3ccc(-c4nc5cc(F)ccc5[nH]4)cn3)CC2)CC1 [Example 86],7.72
4,O=C(O)C[C@H]1CC[C@@H](OC2CCN(c3ccc(-c4nc5ccc(C(F)(F)F)cc5[nH]4)cn3)CC2)CC1 [Example 5],8.30
5,"CC1(S(=O)(=O)NC(=O)[C@H]2CC[C@H](OC3CCN(c4ccc(-c5nc6cc(F)ccc6[nH]5)cn4)CC3)CC2)CC1 [Example 80, trans-4-({1-[5-(5-fluoro-1H-benzimidazol-2-yl)pyridin-2-yl]piperidin-4-yl}oxy)-N-[(1-methylcyclopropyl)sulfonyl]cyclohexanecarboxamide]",7.64
6,O=C(NS(=O)(=O)c1cccnc1)[C@H]1CC[C@H](OC2CCN(c3ccc(-c4nc5cc(F)ccc5[nH]4)cn3)CC2)CC1 [Example 82],7.72
7,N#Cc1ccc2[nH]c(-c3ccc(N4CCC(O[C@H]5CC[C@H](CC(=O)O)CC5)CC4)nc3)nc2c1 [Example 18],7.59
8,O=C(O)C[C@H]1CC[C@H](OC2CCN(c3ccc(-c4nc5nc(C(F)(F)F)ccc5[nH]4)cn3)CC2)CC1 [Example 23],7.80
9,C[C@]1(C(=O)O)CC[C@@H](OC2CCN(c3ccc(-c4nc5cc(F)c(F)cc5[nH]4)cn3)CC2)CC1 [Example 106],7.82
10,O[C@@H]1CO[C@H]2[C@@H]1OC[C@@H]2OC1CCN(c2ccc(-c3nc4cc(F)ccc4[nH]3)cn2)CC1 [Example 125],7.19
11,O=C1CN([C@H]2CC[C@@H](OC3CCN(c4ccc(-c5nc6cc(F)c(F)cc6[nH]5)cn4)CC3)CC2)S(=O)(=O)N1 [Example 122],8.00
12,O=C(O)[C@H]1[C@@H]2C[C@@H](OC3CCN(c4ccc(-c5nc6cc(C(F)(F)F)ccc6[nH]5)cn4)CC3)C[C@@H]21 [Example 134],8.40

# The next lines start with the values.
row,pIC50,Compound
1,8.40,C[C@]1(C(=O)O)C[C@H](OC2CCN(c3ccc(-c4nc5cc(C(F)(F)F)ccc5[nH]4)cn3)CC2)C1 [Example 103]
2,7.36,"C[C@]1(C(=O)O)CC[C@@H](OC2CCN(c3ccc(-c4nc5ccccc5[nH]4)cn3)CC2)CC1 [Example 105, cis-4-({1-[5-(1H-benzimidazol-2-yl)pyridin-2-yl}piperidin-4-yl]oxy)-1-methylcyclohexanecarboxylic acid]"
3,7.54,COC(=O)C(C)(C)COC1CCN(c2ccc(-c3nc4ccccc4[nH]3)cn2)CC1 [Example 35]
4,7.00,COC(=O)c1cccc(COC2CCN(c3ccc(-c4nc5cc(C(F)(F)F)ccc5[nH]4)cn3)CC2)c1 [Example 116]
5,7.29,O=C(O)CC1CC(OC2CCN(c3ccc(-c4nc5cc(F)ccc5[nH]4)cn3)CC2)C1 (stereo not drawn) [Example 54]
6,8.15,O=C(O)C[C@H]1CC[C@H](OC2CCN(c3ccc(-c4nc5cccc(Br)c5[nH]4)cn3)CC2)CC1 [Example 14]
7,7.30,O=C(O)C1(COC2CCN(c3ccc(-c4nc5ccccc5[nH]4)cn3)CC2)CCC1 [Example 42]
8,8.30,CC(C)(COC1CCN(c2ccc(-c3nc4cc(Cl)ccc4[nH]3)cn2)CC1)C(=O)O [Example 47]
9,6.10,Cc1ccc2[nH]c(-c3ccc(N4CCC(OCC(C)(C)C(=O)O)CC4)nc3)nc2n1 [Example 65]
